Laboratory results as given in ChEMBL document CHEMBL1150344, “Interaction of antagonists with calmodulin: insights from molecular dynamics simulations” (J Med Chem, 2008).

Biological target: Calmodulin-1 (Homo sapiens, UniProt P0DP23)
Assay: Binding affinity to calmodulin

In the case of CCCCOc1ccc([C@@H](C)NCCCNCCC(c2ccccc2)c2ccccc2)cc1OCCCC, the Kd is reported as 18 nM.
